Experimental findings from ChEMBL document CHEMBL1782027, “Synthesis and evaluation of heterobivalent tacrine derivatives as potential multi-functional anti-Alzheimer agents” (Eur J Med Chem, 2011) are described below.

Usually IC50 stands for the midpoint of a concentration-inhibition curve. Low readings indicate higher potency, high ones lower potency. For orientation: inhibition means the share of the control response that was lost under treatment.

One assay concerns the target Acetylcholinesterase (Electrophorus electricus, UniProt O42275).
In another assay the target is Cholinesterase (Equus caballus, UniProt P81908).
Assay [1] is described as follows: Inhibition of amyloid beta (1 to 42) self-aggregation at 20 uM after 48 hrs by thioflavin T fluorescent dye assay.
In assay [2] the target is Acetylcholinesterase (Electrophorus electricus) (UniProt O42275). Description: Binding affinity at electric eel AChE catalytic active site assessed as inhibition of acetylthiocholine chloride substrate hydrolysis incubated for 15 mins before substrate addition measured by spectrophotometry based Lineweaver-Burk plot analysis.
Assay [3] has the same target. Description: Binding affinity at electric eel AChE peripheral anionic site assessed as inhibition of acetylthiocholine chloride substrate hydrolysis incubated for 15 mins before substrate addition measured by spectrophotometry based Lineweaver-Burk plot analysis.

Each structure is given as a SMILES string. Calls of active or inactive are those of the source. No cut-off for these calls is given here.

Sequence of Acetylcholinesterase (O42275 whole entry): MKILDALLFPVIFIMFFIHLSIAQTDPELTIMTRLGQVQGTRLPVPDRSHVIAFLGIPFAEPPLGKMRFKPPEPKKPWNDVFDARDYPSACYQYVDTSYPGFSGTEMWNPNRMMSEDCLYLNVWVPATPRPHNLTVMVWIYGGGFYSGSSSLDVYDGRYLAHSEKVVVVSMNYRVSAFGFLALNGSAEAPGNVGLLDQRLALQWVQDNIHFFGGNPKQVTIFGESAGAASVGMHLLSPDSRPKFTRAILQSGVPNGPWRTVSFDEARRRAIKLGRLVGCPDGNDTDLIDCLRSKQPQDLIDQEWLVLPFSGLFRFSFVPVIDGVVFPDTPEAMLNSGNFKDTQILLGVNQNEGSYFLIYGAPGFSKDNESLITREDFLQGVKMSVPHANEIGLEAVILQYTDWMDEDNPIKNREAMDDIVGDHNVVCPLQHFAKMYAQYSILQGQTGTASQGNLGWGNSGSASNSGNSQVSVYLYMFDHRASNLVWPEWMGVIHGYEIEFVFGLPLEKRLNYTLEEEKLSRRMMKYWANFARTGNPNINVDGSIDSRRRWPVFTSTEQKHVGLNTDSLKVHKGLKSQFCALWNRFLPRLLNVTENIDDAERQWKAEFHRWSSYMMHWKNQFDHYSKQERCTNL
Sequence of Cholinesterase (P81908 whole entry): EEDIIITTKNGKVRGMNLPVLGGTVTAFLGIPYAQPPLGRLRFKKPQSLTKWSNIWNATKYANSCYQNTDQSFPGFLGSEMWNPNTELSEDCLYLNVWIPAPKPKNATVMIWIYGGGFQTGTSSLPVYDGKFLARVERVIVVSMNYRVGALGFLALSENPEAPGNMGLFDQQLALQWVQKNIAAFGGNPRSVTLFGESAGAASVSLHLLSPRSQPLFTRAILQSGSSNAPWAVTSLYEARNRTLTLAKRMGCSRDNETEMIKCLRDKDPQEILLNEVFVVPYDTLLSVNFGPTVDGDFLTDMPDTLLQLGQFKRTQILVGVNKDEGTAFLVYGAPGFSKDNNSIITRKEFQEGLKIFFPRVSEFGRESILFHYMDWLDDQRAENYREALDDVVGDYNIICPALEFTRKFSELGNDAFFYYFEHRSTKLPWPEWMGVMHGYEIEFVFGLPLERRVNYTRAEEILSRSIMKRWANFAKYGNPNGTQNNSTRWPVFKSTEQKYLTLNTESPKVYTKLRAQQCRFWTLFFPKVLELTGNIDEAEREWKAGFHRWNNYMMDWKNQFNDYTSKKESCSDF
Sequence of Acetylcholinesterase (Electrophorus electricus) (O42275 24-633 limits assumed): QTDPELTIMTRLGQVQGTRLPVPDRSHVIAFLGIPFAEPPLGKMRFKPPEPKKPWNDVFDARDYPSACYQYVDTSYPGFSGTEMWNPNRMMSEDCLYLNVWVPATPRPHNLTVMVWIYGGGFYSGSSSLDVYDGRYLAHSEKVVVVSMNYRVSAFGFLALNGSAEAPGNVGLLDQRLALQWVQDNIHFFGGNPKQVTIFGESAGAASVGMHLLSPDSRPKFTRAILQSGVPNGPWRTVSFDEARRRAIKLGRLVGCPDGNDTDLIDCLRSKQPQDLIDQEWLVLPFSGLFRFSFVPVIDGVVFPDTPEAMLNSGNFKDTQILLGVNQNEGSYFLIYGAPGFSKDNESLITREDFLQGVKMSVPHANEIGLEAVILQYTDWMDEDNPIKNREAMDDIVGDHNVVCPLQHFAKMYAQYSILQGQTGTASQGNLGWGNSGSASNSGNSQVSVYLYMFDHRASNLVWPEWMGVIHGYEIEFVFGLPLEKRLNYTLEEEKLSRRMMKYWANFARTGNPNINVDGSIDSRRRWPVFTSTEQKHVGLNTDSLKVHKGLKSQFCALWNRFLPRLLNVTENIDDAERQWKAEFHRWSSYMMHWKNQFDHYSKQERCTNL

Turning to `COc1ccc(CNCCCCCCCCNc2c3c(nc4ccccc24)CCCC3)cc1`, the IC50 worked out at 15.3 nM against Acetylcholinesterase and 4.82 nM against Cholinesterase.

`COc1cc(CNCCCCCCNc2c3c(nc4ccccc24)CCCC3)ccc1O`: the IC50 against Acetylcholinesterase came to 43.6 nM; at Cholinesterase it was 9.28 nM.

Regarding `COc1ccc(CNCCCCCNc2c3c(nc4ccccc24)CCCC3)cc1OC`, the values for the half-maximal inhibitory concentration (IC50) against Acetylcholinesterase and against Cholinesterase were 104 nM and 24.4 nM, respectively.

On to `COc1ccc(CNCCCCNc2c3c(nc4ccccc24)CCCC3)cc1OC`, for which the inhibition result in assay [1] was “Active”. Moreover, the concentration for half-maximal inhibition (IC50) on Acetylcholinesterase stood at 365 nM; on Cholinesterase, 37.2 nM.

Turning to `COc1cc(CNCCCCCCCCNc2c3c(nc4ccccc24)CCCC3)cc(OC)c1O`, the IC50 is 4.61 nM on Acetylcholinesterase and 4.08 nM on Cholinesterase.

Take `Oc1ccc(CNCCCCCCCCNc2c3c(nc4ccccc24)CCCC3)cc1`: the values for the half-inhibitory concentration (IC50) at Acetylcholinesterase and against Cholinesterase were 7.48 nM and 5.31 nM, respectively.

`c1ccc2c(NCCCCCCCCNCc3ccncc3)c3c(nc2c1)CCCC3`: the IC50 turned out to be 4.7 nM against Acetylcholinesterase and 4.66 nM on Cholinesterase.

Take `Oc1ccc(CNCCCCCCNc2c3c(nc4ccccc24)CCCC3)cc1`: the IC50 on Acetylcholinesterase is 25.6 nM; at Cholinesterase, 7.5 nM.

Take `c1ccc2c(NCCCCCCCCNCc3ccc4c(c3)OCO4)c3c(nc2c1)CCCC3`: the half-inhibitory concentration (IC50) is 6.14 nM on Acetylcholinesterase and 3.44 nM against Cholinesterase.

As to `COc1ccc(CNCCCCCCNc2c3c(nc4ccccc24)CCCC3)cc1OC`, the inhibition result in assay [1] is “Active”.

Consider `O=C(NCCCCCCCCNc1c2c(nc3ccccc13)CCCC2)c1ccncc1`, for which the IC50 against Acetylcholinesterase stood at 38.5 nM; at Cholinesterase, 38.7 nM.

With `Oc1cccc(CNCCCCCCCCNc2c3c(nc4ccccc24)CCCC3)c1`, the values for the half-inhibitory concentration (IC50) on Acetylcholinesterase and against Cholinesterase were 15.1 nM and 4.91 nM, respectively.

In turn, `COc1cc(/C=C/C(=O)CC(=O)/C=C/c2ccc(O)c(OC)c2)ccc1O` had an inhibition in assay [1] of 50%.

As to `COc1cc(CNCCCCCCCCNc2c3c(nc4ccccc24)CCCC3)ccc1O`, the inhibition result in assay [2] and in assay [3] was “Active” each time. In addition, the inhibition in assay [1] turned out to be 71%. For the same molecule, the IC50 worked out at 4.55 nM on Acetylcholinesterase and 3.41 nM on Cholinesterase.

For the molecule `Oc1ccccc1CNCCCCCCCCNc1c2c(nc3ccccc13)CCCC2`, the results for the 50% inhibitory concentration (IC50) on Acetylcholinesterase and at Cholinesterase were 12.5 nM and 10.2 nM, respectively.
